Patent US5807745A, “Method of inhibiting PADGEM-mediated or ELAM-1-mediated leukocyte adhesion using an inhibitor comprising a Le^x core component” (New England Medical Center Hospitals, Inc., priority 1995, dated 1998)

Experiments:
[1] = tested on: ELAM-mediated binding of HL60 cells to CHO-ELAM cells; assay: CHO-ELAM adhesion assay with tritiated HL60 cells; format: cell-based; conditions: Homo sapiens, HL-60, done once only, read-out: decrease of ELAM-mediated binding; for inhibition at 250 µM: 0.25 mM; for inhibition at 500 µM: 0.5 mM
Excerpt: (§1) Chinese hamster ovary cells (CHO-DUKX) were transfected with cDNA encoding ELAM or PADGEM to make CHO-ELAM and CHO-PADGEM cells. Each of the following cell types, Chinese hamster ovary cells-DUKX (CHO-DUKX), Chinese hamster ovary cells transfected with cDNA for ELAM (CHO-ELAM) and Chinese hamster ovary cells transfected with cDNA for PADGEM (CHO-PADGEM), were separately plated at a density of 6×10^4 cells per milliliter of medium into Costar 48 well culture plates. On the following day, HL60 cells in culture were sedimented by centrifugation and resuspended in medium (RPMI, 10% fetal calf serum) to a density of 5×10^5 cells/ml. Tritiated thymidine (5 μCi per milliliter) was added to the HL60 cell suspension and the cells were grown overnight. The following day the HL60 cells were washed thrice in serum free RPMI and resuspended in a volume of 5 mls of RPMI. After assuring that the free tritium in the cell suspension is no more than 10% of the cell associated tritium, the cell count of the cell suspension was established and the cell density was adjusted to 1×10^6 cells per milliliter.
(§2) To perform the assay medium was aspirated from the CHO cells, CHO-ELAM cells and CHO-PADGEM cells. The wells containing these cells were rinsed with 1 ml of serum free RPMI. HL60 cells were preincubated for 10 minutes with the test sugar at the concentrations indicated. Aliquots of these HL60 cells (100,000 to 300,000 cells) were then added to individual wells containing CHO cells of the various types and the two cell populations incubated together for 30 minutes at room temperature. Unbound HL60 cells were removed by aspiration and the wells were washed thrice with serum free RPMI. The adherent CHO cells and any bound HL60 cells were detached from the surface of the wells with 250 μl of phosphate buffered saline containing 1 mM EDTA. An aliquot of the detached cells (200 μl) was analyzed for tritium content in a β-scintillation counter. The level of nonspecific binding of tritiated HL60 cells was taken as the level of binding seen in the wells containing the CHO-DUKX cells (parent cell line of CHO-PADGEM and CHO-ELAM transfectants). This value was subtracted from the level of tritiated HL60 cells bound in wells containing CHO-ELAM or CHO-PADGEM cells. The decrease in binding induced by the presence of the sugar was determined by comparing the level of binding of HL60 cells in the presence of the sugar to that observed in its absence.
(§3) Additional sugars were tested for inhibition of PADGEM- and ELAM-mediated interactions using the CHO-PADGEM and CHO-ELAM adhesion assay described in Example 2. The following sugars were tested at a single concentration: […]

[2] = tested on: PADGEM-mediated binding of HL60 cells to CHO-PADGEM transfectants; assay: CHO-PADGEM adhesion assay with tritiated HL60 cells; format: cell-based; conditions: done once only
Excerpt: as §1, §2, §3

[3] = tested on: adherence of activated platelets to neutrophils (PADGEM-mediated); assay: Phase-contrast cell adhesion assay: thrombin-activated platelets with neutrophils; format: cell-based, human; conditions: LNF isomers; direct cell adhesion assay; FIG. 6
Protocol: Platelets were isolated by gel filtration from fresh anticoagulated blood obtained from normal human donors (Hsu-Lin et al., J. Biol. Chem., 259: 9121-9126 (1984)). Activated platelets were prepared by incubating cells without stirring for 20 minutes at 22° C. with thrombin at a final concentration of 0.25 U/ml. Fresh platelets were used in cell adhesion assays within 30 minutes of preparation.
Neutrophils were prepared by the method of English and Anderson (J. Immunol. Method, 5: 249-252 (1974)). The neutrophil preparations were greater than 95% pure by light microscopy. Monocytes were prepared by washing the mono-nuclear leukocyte fraction twice with human serum-5 mM EDTA and incubating the cells in RPMI 1640--10% fetal calf serum in sterile […] dishes for 2 hours at 37° C. The dishes were washed three times with PBS at 37° C. to remove nonadherent cells. PBS at 0° C. was added, and the cells were incubated at 4° C. for 1 hour. Adherent cells were gently detached with a rubber policeman, washed in PBS, and resuspended in RPMI 1640--1% fetal calf serum. Lymphocytes were obtained by washing the nonadherent cells with PBS and resuspending these cells in RPMI 1640--1% fetal calf serum. The purity of these preparations was established to be greater than 90% by light microscopy using Wright esterase and nonspecific esterase stains.
Twenty microliters of platelet suspension (2×10^8 /ml) was mixed with 20 μl of cell suspension (2×10^6 /ml) and incubated for 20 minutes at 22° C. in a microfuge tube. An aliquot of the cell suspension was then in a Neubauer chamber and evaluated by light microscropy using an Olympus model BH-2 microscope. Three samples from each assay were evaluated by counting 200 cells and scoring the percentage of cells with two or more adherent platelets (Jungi et al., Blood 67: 629-636 (1986)). Antibody inhibition studies were performed by preincubating cells (20 μl; 3×10^6 /ml) with 20 μl of antibody solution for 20 minutes at 22° C. Subsequently, 20 μl of platelet suspension was added, and the mixture was incubated for 20 minutes at 22° C. Samples were analyzed as above.
To identify the PADGEM recognition site on leukocytes that mediates the binding of activated platelets, monoclonal antibodies directed at various antigens on the surface of monocytes and neutrophils were tested for their ability to inhibit the interaction of these cells with activated platelets, using the phase-contrast cell adhesion assay described in Example 2 (FIG. 1 and FIG. 2). The antibodies were raised against various leukocytes and myeloid cell lines and are directed at leukocyte antigens. […] The percentage of cells displaying two or more adherent platelets was determined as described in Example 2.

[4] = tested on: binding of HL60 cells to COS/PADGEM cells; assay: COS cell-PADGEM adhesion assay with labelled HL60 cells; format: cell-based, human; conditions: for inhibition of binding of radiolabeled HL60 cells to COS/PADGEM cells: 111In activity, FIG. 7; for inhibition of binding of fluorescently labeled HL60 cells to COS/PADGEM cells: scored morphologically in a blind assay
Protocol: COS cells (1×10^5) were transfected with 40 μg of the resulting PADGEM expression vector by calcium phosphate precipitation. Coverslips (12×12 mm) were added to each culture. After 48 hours of growth in DMEM--10% fetal calf serum, the COS cells were confluent.
HL60 cells (1×10^7), maintained in culture, were washed and resuspended in 0.5 ml of serum-free RPMI 1640. The cells were labeled with 270 μCi of ^111 In oxine (Callow et al., Arch. Surg., 117: 1447-1455 (1982)) and 10 μg of bis-carboxyethyl-carboxyfluorescein (Kolber et al., J. Immunol. Meth., 108: 255-264 (1988)) by incubation at 37° C. for 30 minutes. After washing with RPMI 1640--1% bovine serum albumin, the cells (1×10^6) were incubated with the coverslips containing confluent COS cell transfectants, in the presence or absence of LNF isomers, for 20 minutes at 37° C. The coverslips were washed with RPMI 1640, and duplicate coverslips were assayed for ^111 In activity. Alternatively, samples were evaluated for HL60 cell adherence by fluorescence and phase-contrast microscopy using a Zeiss Axioscope microscope in a blind assay. Inhibition of the binding of COS/PADGEM cells to U937 cells by the antibody 80H5 was performed in experiments identical to the procedure described above.
The results of a COS cell-PADGEM adhesion assay, in which the binding of ^111 In and bis-carboxyethyl-carboxyfluorescein-lableled HL60 cells to COS/PADGEM cells was monitored by assaying ^111 In activity (Example 2), are shown in FIG. 7. […] The inhibitory effect of LNF II was more apparent when the LNF to PADGEM ratio was high. […] It is possible that minor contamination of the LNF II preparation with LNF III can account for the inhibitory activity observed.
The inhibitory effects of LNF I, II, and III on the interaction of HL60 cells and COS/PADGEM was also studied morphologically in a blind assay. In these experiments, the binding of fluorescently labeled HL60 cells to COS/PADGEM cells was scored (Example 2).

[5] = tested on: PADGEM; conditions: literature reports; cited from earlier work

Question: For `CC(=O)NC1C(O)CC(OC2C(O)C(CO)OC(OC3C(CO)OC(O)C(O)C3OC3OC(C)C(O)C(O)C3O)C2O)(C(=O)O)OC1C(O)C(O)CO` (centres unmarked) [3'-sialyl-3-fucosyllactose, NeuAcα2-3Galβ1-4[Fucα1-3]Glc], which inhibition at 250 µM [1] is on record?
Answer: 50 to 60%

Question: What about the “inhibition of PADGEM-mediated binding of HL60 cells to CHO-PADGEM transfectants” value ([2]; 0.25 mM) of the same molecule?
Answer: none of the four sugars tested appreciably inhibited

Question: Which inhibition at 500 µM [1] does the source give for `CC(=O)NC1C(O)CC(OC2C(O)C(CO)OC(OC3C(CO)OC(O)C(O)C3O)C2O)(C(=O)O)OC1C(O)C(O)CO` (centres unmarked) [3'-sialyllactose, NeuAcα2-3Galβ1-4Glc] here?
Answer: ≤ 10%

Question: What about the “inhibition of PADGEM-mediated binding of HL60 cells to CHO-PADGEM transfectants” value ([2]; 0.5 mM) of the same molecule?
Answer: none of the four sugars tested appreciably inhibited

Question: Which results are given for `C[C@@H]1O[C@@H](O[C@H]2[C@H](O[C@@H]3O[C@H](CO)[C@H](O)[C@H](O)[C@H]3O)[C@@H](CO)OC(O)[C@@H]2O)[C@@H](O)[C@H](O)[C@@H]1O` (some centres unmarked) [3-fucosyllactose, Galβ1-4[Fucα1-3]Glc]?
Answer: inhibition at 250 µM [1]: ≤ 10%; inhibition of PADGEM-mediated binding of HL60 cells to CHO-PADGEM transfectants ([2]; 0.25 mM): none of the four sugars tested appreciably inhibited

Question: What does the source list for `CC(=O)NC1C(O)CC(OCC2OC(OC3C(CO)OC(O)C(O)C3O)C(O)C(O)C2O)(C(=O)O)OC1C(O)C(O)CO` (centres unmarked) [6'-sialyllactose, NeuAcα2-6Galβ1-4Glc]?
Answer: inhibition at 500 µM [1]: ≤ 10%; inhibition of PADGEM-mediated binding of HL60 cells to CHO-PADGEM transfectants ([2]; 0.5 mM): none of the four sugars tested appreciably inhibited

Question: With `CC(=O)N[C@H]1[C@H](O[C@H]2[C@@H](O)[C@@H](CO)O[C@@H](O[C@H]3[C@H](O)[C@@H](O)C(O)O[C@@H]3CO)[C@@H]2O)O[C@H](CO)[C@@H](O)[C@@H]1O[C@@H]1O[C@H](CO)[C@H](O)[C@H](O)[C@H]1O[C@@H]1O[C@@H](C)[C@@H](O)[C@@H](O)[C@@H]1O` (some centres unmarked) [LNF I, Fucα1-2Galβ1-3GlcNAcβ1-3Galβ1-4Glc] as the molecule, how does the “inhibitory activity on adherence of activated platelets to neutrophils” value [3] read?
Answer: neither LNF I (open squares) nor LNF II (closed circles) had inhibitory activity

Question: And the “inhibition of binding of radiolabeled HL60 cells to COS/PADGEM cells” value [4]?
Answer: did not inhibit

Question: What about the “inhibition of binding of fluorescently labeled HL60 cells to COS/PADGEM cells” value [4] of the same molecule?
Answer: no inhibitory activity

Question: For `CC(=O)N[C@H]1[C@H](O[C@H]2[C@@H](O)[C@@H](CO)O[C@@H](O[C@H]3[C@H](O)[C@@H](O)C(O)O[C@@H]3CO)[C@@H]2O)O[C@H](CO)[C@@H](O[C@@H]2O[C@@H](C)[C@@H](O)[C@@H](O)[C@@H]2O)[C@@H]1O[C@@H]1O[C@H](CO)[C@H](O)[C@H](O)[C@H]1O` (some centres unmarked) [LNF II, Galβ1-3(Fucα1-4)GlcNAcβ1-3Galβ1-4Glc], which “inhibitory activity on adherence of activated platelets to neutrophils” value [3] is on record?
Answer: neither LNF I (open squares) nor LNF II (closed circles) had inhibitory activity

Question: What about the “inhibition of binding of radiolabeled HL60 cells to COS/PADGEM cells” value [4] of the same molecule?
Answer: only a small inhibitory effect

Question: What about the “inhibition of binding of fluorescently labeled HL60 cells to COS/PADGEM cells” value [4] of the same molecule?
Answer: no inhibitory activity

Question: Which “inhibition of PADGEM-mediated binding of activated platelets to leukocytes” value (“inhibition … to leukocytes” below) [5] does the source give for fucoidin here?
Answer: inhibited

Question: For heparin, which “inhibition … to leukocytes” value [5] is on record?
Answer: inhibited

B1: purified PADGEM: purified platelet activation dependent granule-external membrane protein (protein, UniProt P16109 42-830, looked up)
P-selectin: WTYHYSTKAYSWNISRKYCQNRYTDLVAIQNKNEIDYLNKVLPYYSSYYWIGIRKNNKTWTWVGTKKALTNEAENWADNEPNNKRNNEDCVEIYIKSPSAPGKWNDEHCLKKKHALCYTASCQDMSCSKQGECLETIGNYTCSCYPGFYGPECEYVRECGELELPQHVLMNCSHPLGNFSFNSQCSFHCTDGYQVNGPSKLECLASGIWTNKPPQCLAAQCPPLKIPERGNMTCLHSAKAFQHQSSCSFSCEEGFALVGPEVVQCTASGVWTAPAPVCKAVQCQHLEAPSEGTMDCVHPLTAFAYGSSCKFECQPGYRVRGLDMLRCIDSGHWSAPLPTCEAISCEPLESPVHGSMDCSPSLRAFQYDTNCSFRCAEGFMLRGADIVRCDNLGQWTAPAPVCQALQCQDLPVPNEARVNCSHPFGAFRYQSVCSFTCNEGLLLVGASVLQCLATGNWNSVPPECQAIPCTPLLSPQNGTMTCVQPLGSSSYKSTCQFICDEGYSLSGPERLDCTRSGRWTDSPPMCEAIKCPELFAPEQGSLDCSDTRGEFNVGSTCHFSCDNGFKLEGPNNVECTTSGRWSATPPTCKGIASLPTPGVQCPALTTPGQGTMYCRHHPGTFGFNTTCYFGCNAGFTLIGDSTLSCRPSGQWTAVTPACRAVKCSELHVNKPIAMNCSNLWGNFSYGSICSFHCLEGQLLNGSAQTACQENGHWSTTVPTCQAGPLTIQEALTYFGGAVASTIGLIMGGTLLALLRKRFRQKDDGKCPLNPHSHLGTYGVFTNAAFDPSP
Question: Which “inhibition … to leukocytes” value [5] does the source give for B1 here?
Answer: inhibited
